Results: US10844077B2, “Thiazolyl-containing compounds for treating proliferative diseases” (Dana-Farber Cancer Institute, Inc., priority 2014, dated 2020)
Where two headings read alike, the source gives them in different places.

Columns and labels:
Assay type in all cases: binding
broad panel of kinases [1] = target: broad panel of kinases (Homo sapiens, UniProt O00750); conditions: PIK3C2B; 1 μM
broad panel of kinases [2] = target: broad panel of kinases (Homo sapiens, UniProt P51955); conditions: NEK2; 1 μM
broad panel of kinases [3] = target: broad panel of kinases (Homo sapiens, UniProt O75914); conditions: PAK3; 1 μM
broad panel of kinases [4] = target: broad panel of kinases (Homo sapiens, UniProt Q15418); conditions: 1 μM
broad panel of kinases [5] = target: broad panel of kinases (Homo sapiens, UniProt Q9Y4K4); conditions: MAP4K5; 1 μM
broad panel of kinases [6] = target: broad panel of kinases (Homo sapiens, UniProt P31749); conditions: AKT1; 1 μM
broad panel of kinases [7] = target: broad panel of kinases (Homo sapiens, UniProt Q9HCP0); conditions: CSNK1G1; 1 μM
broad panel of kinases [8] = target: broad panel of kinases (Homo sapiens, UniProt Q99759); conditions: MAP3K3; 1 μM
broad panel of kinases [9] = target: broad panel of kinases (Homo sapiens, UniProt P00519); conditions: 1 μM
broad panel of kinases [10] = target: broad panel of kinases (Homo sapiens, UniProt Q14164); conditions: IKK-epsilon; 1 μM
broad panel of kinases [11] = target: broad panel of kinases (Homo sapiens, UniProt O43293); conditions: DAPK3; 1 μM
broad panel of kinases [12] = target: broad panel of kinases (Homo sapiens, UniProt Q59H18); conditions: TNNI3K; 1 μM
broad panel of kinases [13] = target: broad panel of kinases (Homo sapiens, UniProt P10721); conditions: 1 μM
broad panel of kinases [14] = target: broad panel of kinases (Homo sapiens, UniProt Q13554); conditions: CAMK2B; 1 μM
broad panel of kinases [15] = target: broad panel of kinases (Homo sapiens, UniProt Q15831); conditions: LKB1; 1 μM
broad panel of kinases [16] = target: broad panel of kinases (Homo sapiens, UniProt P53778); conditions: p38-gamma; 1 μM
broad panel of kinases [17] = target: broad panel of kinases (Homo sapiens, UniProt P49336); conditions: CDK8; 1 μM
broad panel of kinases [18] = target: broad panel of kinases (Homo sapiens, UniProt Q8N4C8); conditions: MINK; 1 μM
broad panel of kinases [19] = target: broad panel of kinases (Homo sapiens, UniProt O00444); conditions: PLK4; 1 μM
broad panel of kinases [20] = target: broad panel of kinases (Homo sapiens, UniProt Q14289); conditions: PYK2; 1 μM
broad panel of kinases [21] = target: broad panel of kinases (Homo sapiens, UniProt Q16513); conditions: PKN2; 1 μM
broad panel of kinases [22] = target: broad panel of kinases (Homo sapiens, UniProt P0C264); conditions: SgK110; 1 μM
broad panel of kinases [23] = target: broad panel of kinases (Homo sapiens, UniProt O15197); conditions: EPHB6; 1 μM
broad panel of kinases [24] = target: broad panel of kinases (Homo sapiens, UniProt Q13163); conditions: MEK5; 1 μM
broad panel of kinases [25] = target: broad panel of kinases (Homo sapiens, UniProt Q86Y07); conditions: VRK2; 1 μM
broad panel of kinases [26] = target: broad panel of kinases (Homo sapiens, UniProt P10721, A829P); conditions: KIT(A829P); 1 μM
broad panel of kinases [27] = target: broad panel of kinases (Homo sapiens, UniProt Q16620); conditions: TRKB; 1 μM
broad panel of kinases [28] = target: broad panel of kinases (Homo sapiens, UniProt O15530); conditions: PDPK1; 1 μM
broad panel of kinases [29] = target: broad panel of kinases (Homo sapiens, UniProt P06213); conditions: INSR; 1 μM
broad panel of kinases [30] = target: broad panel of kinases (Homo sapiens, UniProt P33981); conditions: TTK; 1 μM
broad panel of kinases [31] = target: broad panel of kinases (Homo sapiens, UniProt Q8TDX7); conditions: NEK7; 1 μM
broad panel of kinases [32] = target: broad panel of kinases (Homo sapiens, UniProt P49761); conditions: CLK3; 1 μM
broad panel of kinases [33] = target: broad panel of kinases (Homo sapiens, UniProt P36894); conditions: BMPR1A; 1 μM
broad panel of kinases [34] = target: broad panel of kinases (Homo sapiens, UniProt Q13237); conditions: PRKG2; 1 μM
broad panel of kinases [35] = target: broad panel of kinases (Homo sapiens, UniProt P30291); conditions: WEE1; 1 μM
broad panel of kinases [36] = target: broad panel of kinases (Homo sapiens, UniProt Q15349); conditions: 1 μM

Chain of broad panel of kinases (Homo sapiens, UniProt P10721) (P10721 26-976 limits assumed): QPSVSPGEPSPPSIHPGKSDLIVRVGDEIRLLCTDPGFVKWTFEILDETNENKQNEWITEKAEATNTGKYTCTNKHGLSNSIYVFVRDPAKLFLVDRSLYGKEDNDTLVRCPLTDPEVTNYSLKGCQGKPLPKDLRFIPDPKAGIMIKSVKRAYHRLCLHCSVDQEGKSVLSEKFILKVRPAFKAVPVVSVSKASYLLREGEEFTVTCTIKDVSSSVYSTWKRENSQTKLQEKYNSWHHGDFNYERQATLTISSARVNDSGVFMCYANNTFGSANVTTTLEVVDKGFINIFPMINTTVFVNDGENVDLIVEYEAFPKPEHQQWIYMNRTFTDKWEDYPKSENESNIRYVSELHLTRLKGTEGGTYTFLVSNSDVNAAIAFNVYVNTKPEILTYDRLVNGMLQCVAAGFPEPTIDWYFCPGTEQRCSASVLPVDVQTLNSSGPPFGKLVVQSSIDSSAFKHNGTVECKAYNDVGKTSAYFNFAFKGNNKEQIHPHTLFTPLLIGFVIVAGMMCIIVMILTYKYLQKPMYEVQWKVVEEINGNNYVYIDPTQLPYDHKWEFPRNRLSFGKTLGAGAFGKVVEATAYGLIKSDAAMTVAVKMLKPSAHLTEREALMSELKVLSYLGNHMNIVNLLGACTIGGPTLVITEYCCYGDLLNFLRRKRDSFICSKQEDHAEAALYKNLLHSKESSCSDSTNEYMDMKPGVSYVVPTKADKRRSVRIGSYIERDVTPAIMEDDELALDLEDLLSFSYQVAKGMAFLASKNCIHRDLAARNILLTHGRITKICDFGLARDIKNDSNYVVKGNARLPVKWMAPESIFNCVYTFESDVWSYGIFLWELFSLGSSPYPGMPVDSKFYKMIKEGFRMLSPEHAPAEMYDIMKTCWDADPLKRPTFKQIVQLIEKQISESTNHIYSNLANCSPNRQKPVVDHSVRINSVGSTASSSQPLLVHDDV
Chain of broad panel of kinases (Homo sapiens, UniProt P10721, A829P) (P10721 26-976 A829P limits assumed): as the sequence (P10721 26-976 limits assumed) above, with A804P counted along it
Chain of broad panel of kinases (Homo sapiens, UniProt Q16620) (Q16620 32-822 limits assumed): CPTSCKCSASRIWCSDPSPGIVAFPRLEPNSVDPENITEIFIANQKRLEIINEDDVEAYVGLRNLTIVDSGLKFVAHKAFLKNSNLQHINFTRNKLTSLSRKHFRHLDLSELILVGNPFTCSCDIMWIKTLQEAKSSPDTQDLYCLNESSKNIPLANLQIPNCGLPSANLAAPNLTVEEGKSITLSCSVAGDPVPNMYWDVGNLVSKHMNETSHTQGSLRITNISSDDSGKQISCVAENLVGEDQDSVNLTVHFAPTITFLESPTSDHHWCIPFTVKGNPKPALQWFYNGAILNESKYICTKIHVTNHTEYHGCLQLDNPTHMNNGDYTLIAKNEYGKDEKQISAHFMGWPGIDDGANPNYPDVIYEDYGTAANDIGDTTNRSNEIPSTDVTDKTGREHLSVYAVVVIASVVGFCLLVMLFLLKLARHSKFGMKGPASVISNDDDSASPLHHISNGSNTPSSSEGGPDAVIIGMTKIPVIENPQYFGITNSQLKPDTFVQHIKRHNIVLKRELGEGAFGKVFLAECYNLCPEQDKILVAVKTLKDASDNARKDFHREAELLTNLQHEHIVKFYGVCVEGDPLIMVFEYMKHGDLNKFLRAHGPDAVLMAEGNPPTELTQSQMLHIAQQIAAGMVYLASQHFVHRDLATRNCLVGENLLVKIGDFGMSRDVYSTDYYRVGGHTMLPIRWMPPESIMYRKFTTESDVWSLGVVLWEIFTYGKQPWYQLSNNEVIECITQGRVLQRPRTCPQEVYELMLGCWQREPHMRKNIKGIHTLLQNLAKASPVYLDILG
Chain of broad panel of kinases (Homo sapiens, UniProt Q13237) (Q13237 2-762 limits assumed): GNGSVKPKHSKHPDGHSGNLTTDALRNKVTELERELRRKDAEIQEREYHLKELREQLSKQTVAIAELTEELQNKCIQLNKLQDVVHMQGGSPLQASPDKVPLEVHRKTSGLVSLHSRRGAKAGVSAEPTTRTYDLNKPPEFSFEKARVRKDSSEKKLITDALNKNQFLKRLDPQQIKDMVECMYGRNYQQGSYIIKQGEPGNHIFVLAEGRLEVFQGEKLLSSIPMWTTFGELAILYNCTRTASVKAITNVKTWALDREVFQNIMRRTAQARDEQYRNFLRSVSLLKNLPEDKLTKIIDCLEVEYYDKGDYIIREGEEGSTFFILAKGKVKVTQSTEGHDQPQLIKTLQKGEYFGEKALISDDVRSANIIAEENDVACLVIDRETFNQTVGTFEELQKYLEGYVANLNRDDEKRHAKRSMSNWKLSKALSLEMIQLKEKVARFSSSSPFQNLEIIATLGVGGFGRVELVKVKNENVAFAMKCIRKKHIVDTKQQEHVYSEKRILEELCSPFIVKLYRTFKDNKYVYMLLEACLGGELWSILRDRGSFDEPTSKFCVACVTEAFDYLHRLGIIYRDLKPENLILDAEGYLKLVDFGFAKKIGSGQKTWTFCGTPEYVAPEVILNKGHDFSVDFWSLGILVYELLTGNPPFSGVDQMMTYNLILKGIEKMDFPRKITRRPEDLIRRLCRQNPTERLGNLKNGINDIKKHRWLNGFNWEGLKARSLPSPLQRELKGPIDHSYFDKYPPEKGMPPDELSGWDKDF
Chain of broad panel of kinases (Homo sapiens, UniProt O15197) (O15197 32-1021 limits assumed): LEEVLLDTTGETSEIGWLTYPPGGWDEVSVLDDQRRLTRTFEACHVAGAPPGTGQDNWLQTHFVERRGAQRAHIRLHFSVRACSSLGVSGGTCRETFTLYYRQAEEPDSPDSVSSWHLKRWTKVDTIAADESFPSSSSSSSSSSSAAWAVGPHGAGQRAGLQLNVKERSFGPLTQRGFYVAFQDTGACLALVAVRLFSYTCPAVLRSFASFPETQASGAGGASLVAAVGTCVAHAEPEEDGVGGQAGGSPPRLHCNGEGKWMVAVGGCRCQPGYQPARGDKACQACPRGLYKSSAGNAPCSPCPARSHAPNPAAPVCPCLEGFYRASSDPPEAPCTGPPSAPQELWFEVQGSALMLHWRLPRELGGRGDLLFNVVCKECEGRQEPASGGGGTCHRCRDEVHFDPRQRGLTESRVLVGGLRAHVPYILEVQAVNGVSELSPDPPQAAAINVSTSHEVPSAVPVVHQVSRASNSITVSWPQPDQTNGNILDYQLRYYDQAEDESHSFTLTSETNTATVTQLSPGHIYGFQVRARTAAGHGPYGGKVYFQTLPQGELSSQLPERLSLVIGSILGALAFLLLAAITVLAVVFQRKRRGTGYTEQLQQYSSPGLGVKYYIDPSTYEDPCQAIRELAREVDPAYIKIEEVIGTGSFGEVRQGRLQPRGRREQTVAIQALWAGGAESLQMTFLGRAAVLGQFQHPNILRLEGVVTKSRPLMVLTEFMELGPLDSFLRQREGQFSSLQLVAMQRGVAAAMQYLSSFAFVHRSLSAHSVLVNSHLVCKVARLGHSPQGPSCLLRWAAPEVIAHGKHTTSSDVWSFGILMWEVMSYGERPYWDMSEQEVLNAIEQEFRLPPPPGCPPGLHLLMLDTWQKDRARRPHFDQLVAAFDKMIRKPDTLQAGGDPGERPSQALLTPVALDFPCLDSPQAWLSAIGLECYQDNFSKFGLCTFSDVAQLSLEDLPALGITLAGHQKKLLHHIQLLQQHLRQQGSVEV
Chain of broad panel of kinases (Homo sapiens, UniProt P06213) (P06213 28-758 limits assumed): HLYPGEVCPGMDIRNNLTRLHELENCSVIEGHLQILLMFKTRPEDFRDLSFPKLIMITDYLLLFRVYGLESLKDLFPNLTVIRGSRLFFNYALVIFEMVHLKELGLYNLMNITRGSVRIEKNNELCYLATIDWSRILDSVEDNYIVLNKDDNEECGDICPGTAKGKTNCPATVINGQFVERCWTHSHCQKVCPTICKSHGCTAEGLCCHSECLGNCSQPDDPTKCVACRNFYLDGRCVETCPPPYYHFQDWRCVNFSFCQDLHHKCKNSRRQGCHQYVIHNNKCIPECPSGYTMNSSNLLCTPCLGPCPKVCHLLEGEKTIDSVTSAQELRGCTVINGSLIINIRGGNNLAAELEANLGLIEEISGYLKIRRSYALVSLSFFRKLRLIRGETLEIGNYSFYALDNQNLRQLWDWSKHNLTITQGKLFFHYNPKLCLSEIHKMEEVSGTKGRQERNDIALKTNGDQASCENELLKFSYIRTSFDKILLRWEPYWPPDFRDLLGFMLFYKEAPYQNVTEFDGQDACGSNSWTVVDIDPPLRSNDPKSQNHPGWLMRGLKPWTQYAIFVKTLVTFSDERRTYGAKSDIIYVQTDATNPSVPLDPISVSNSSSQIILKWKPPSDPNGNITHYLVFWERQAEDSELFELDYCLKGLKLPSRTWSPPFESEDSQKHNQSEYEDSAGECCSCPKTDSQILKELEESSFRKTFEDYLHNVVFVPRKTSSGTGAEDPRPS
Chain of broad panel of kinases (Homo sapiens, UniProt P06213) (P06213 763-1382 limits assumed): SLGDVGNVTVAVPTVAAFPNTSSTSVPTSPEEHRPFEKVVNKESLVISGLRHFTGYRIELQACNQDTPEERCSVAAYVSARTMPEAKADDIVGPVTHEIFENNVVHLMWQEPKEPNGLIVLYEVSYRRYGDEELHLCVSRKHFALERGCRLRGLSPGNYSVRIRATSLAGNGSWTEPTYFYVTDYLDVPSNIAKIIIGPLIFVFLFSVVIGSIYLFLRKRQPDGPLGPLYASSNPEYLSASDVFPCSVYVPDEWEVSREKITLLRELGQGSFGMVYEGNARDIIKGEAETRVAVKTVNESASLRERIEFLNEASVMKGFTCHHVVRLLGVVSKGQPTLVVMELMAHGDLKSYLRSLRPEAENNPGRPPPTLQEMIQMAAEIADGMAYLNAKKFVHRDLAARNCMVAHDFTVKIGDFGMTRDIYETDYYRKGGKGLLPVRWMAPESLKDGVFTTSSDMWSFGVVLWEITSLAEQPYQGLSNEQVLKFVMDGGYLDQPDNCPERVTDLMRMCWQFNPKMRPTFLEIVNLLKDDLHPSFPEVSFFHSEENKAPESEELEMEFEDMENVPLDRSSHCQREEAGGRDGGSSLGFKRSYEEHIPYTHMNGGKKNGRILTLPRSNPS

## C=CC(=O)N1CC[C@H](Nc2nc(CN3CCOCC3)cc(Nc3ncc(C(=O)Nc4c(C)cccc4C)s3)n2)C1 [Example I-2]
Broad panel of kinases [1]
  percent of control binding remaining (lower = stronger binding): 86%
Broad panel of kinases [2]
  percent of control binding remaining (lower = stronger binding): 100%
Broad panel of kinases [3]
  percent of control binding remaining (lower = stronger binding): 75%
Broad panel of kinases [4]; RSK1(Kin.Dom.1-N-terminal)
  percent of control binding remaining (lower = stronger binding): 73%
Broad panel of kinases [4]; RSK1(Kin.Dom.2-C-terminal)
  percent of control binding remaining (lower = stronger binding): 100%
Broad panel of kinases [5]
  percent of control binding remaining (lower = stronger binding): 82%
Broad panel of kinases [6]
  percent of control binding remaining (lower = stronger binding): 95%
Broad panel of kinases [7]
  percent of control binding remaining (lower = stronger binding): 100%
Broad panel of kinases [8]
  percent of control binding remaining (lower = stronger binding): 79%
Broad panel of kinases [9]; ABL1-nonphosphorylated
  percent of control binding remaining (lower = stronger binding): 0.05%
Broad panel of kinases [9]; ABL1-phosphorylated
  percent of control binding remaining (lower = stronger binding): 0%
Broad panel of kinases [10]
  percent of control binding remaining (lower = stronger binding): 100%
Broad panel of kinases [11]
  percent of control binding remaining (lower = stronger binding): 89%
Broad panel of kinases [12]
  percent of control binding remaining (lower = stronger binding): 16%
Broad panel of kinases [13]; KIT-autoinhibited
  percent of control binding remaining (lower = stronger binding): 1.8%
Broad panel of kinases [13]; KIT
  percent of control binding remaining (lower = stronger binding): 0%
Broad panel of kinases [14]
  percent of control binding remaining (lower = stronger binding): 84%
Broad panel of kinases [15]
  percent of control binding remaining (lower = stronger binding): 100%
Broad panel of kinases [16]
  percent of control binding remaining (lower = stronger binding): 100%
Broad panel of kinases [17]
  percent of control binding remaining (lower = stronger binding): 93%
Broad panel of kinases [18]
  percent of control binding remaining (lower = stronger binding): 71%
Broad panel of kinases [19]
  percent of control binding remaining (lower = stronger binding): 73%
Broad panel of kinases [20]
  percent of control binding remaining (lower = stronger binding): 100%
Broad panel of kinases [21]
  percent of control binding remaining (lower = stronger binding): 84%
Broad panel of kinases [22]
  percent of control binding remaining (lower = stronger binding): 59%
Broad panel of kinases [23]
  percent of control binding remaining (lower = stronger binding): 7.7%
Broad panel of kinases [24]
  percent of control binding remaining (lower = stronger binding): 0.25%
Broad panel of kinases [25]
  percent of control binding remaining (lower = stronger binding): 94%
Broad panel of kinases [26]
  percent of control binding remaining (lower = stronger binding): 5.8%
Broad panel of kinases [27]
  percent of control binding remaining (lower = stronger binding): 94%
Broad panel of kinases [28]
  percent of control binding remaining (lower = stronger binding): 98%
Broad panel of kinases [29]
  percent of control binding remaining (lower = stronger binding): 67%
Broad panel of kinases [30]
  percent of control binding remaining (lower = stronger binding): 100%
Broad panel of kinases [31]
  percent of control binding remaining (lower = stronger binding): 100%
Broad panel of kinases [32]
  percent of control binding remaining (lower = stronger binding): 100%
Broad panel of kinases [33]
  percent of control binding remaining (lower = stronger binding): 100%
Broad panel of kinases [34]
  percent of control binding remaining (lower = stronger binding): 99%
Broad panel of kinases [35]
  percent of control binding remaining (lower = stronger binding): 93%
Broad panel of kinases [36]; RSK3(Kin.Dom.1-N-terminal)
  percent of control binding remaining (lower = stronger binding): 93%
Broad panel of kinases [36]; RSK3(Kin.Dom.2-C-terminal)
  percent of control binding remaining (lower = stronger binding): 100%

## C=CC(=O)N1CC[C@H](Nc2nccc(Nc3ncc(C(=O)Nc4c(C)cccc4C)s3)n2)C1 [Example I-3]
Broad panel of kinases [1]
  percent of control binding remaining (lower = stronger binding): 47%
Broad panel of kinases [2]
  percent of control binding remaining (lower = stronger binding): 96%
Broad panel of kinases [3]
  percent of control binding remaining (lower = stronger binding): 51%
Broad panel of kinases [4]; RSK1(Kin.Dom.1-N-terminal)
  percent of control binding remaining (lower = stronger binding): 91%
Broad panel of kinases [4]; RSK1(Kin.Dom.2-C-terminal)
  percent of control binding remaining (lower = stronger binding): 100%
Broad panel of kinases [5]
  percent of control binding remaining (lower = stronger binding): 96%
Broad panel of kinases [6]
  percent of control binding remaining (lower = stronger binding): 95%
Broad panel of kinases [7]
  percent of control binding remaining (lower = stronger binding): 100%
Broad panel of kinases [8]
  percent of control binding remaining (lower = stronger binding): 94%
Broad panel of kinases [9]; ABL1-nonphosphorylated
  % change compared to control: 0.1%
Broad panel of kinases [9]; ABL1-phosphorylated
  % change compared to control: 0%
Broad panel of kinases [10]
  percent of control binding remaining (lower = stronger binding): 100%
Broad panel of kinases [11]
  percent of control binding remaining (lower = stronger binding): 84%
Broad panel of kinases [12]
  percent of control binding remaining (lower = stronger binding): 44%
Broad panel of kinases [13]; KIT-autoinhibited
  percent of control binding remaining (lower = stronger binding): 2.6%
Broad panel of kinases [13]; KIT
  percent of control binding remaining (lower = stronger binding): 0%
Broad panel of kinases [14]
  percent of control binding remaining (lower = stronger binding): 81%
Broad panel of kinases [15]
  percent of control binding remaining (lower = stronger binding): 100%
Broad panel of kinases [16]
  percent of control binding remaining (lower = stronger binding): 100%
Broad panel of kinases [17]
  percent of control binding remaining (lower = stronger binding): 98%
Broad panel of kinases [18]
  percent of control binding remaining (lower = stronger binding): 66%
Broad panel of kinases [19]
  percent of control binding remaining (lower = stronger binding): 82%
Broad panel of kinases [20]
  percent of control binding remaining (lower = stronger binding): 100%
Broad panel of kinases [21]
  percent of control binding remaining (lower = stronger binding): 100%
Broad panel of kinases [22]
  percent of control binding remaining (lower = stronger binding): 95%
Broad panel of kinases [23]
  percent of control binding remaining (lower = stronger binding): 4.6%
Broad panel of kinases [24]
  percent of control binding remaining (lower = stronger binding): 0.45%
Broad panel of kinases [25]
  percent of control binding remaining (lower = stronger binding): 70%
Broad panel of kinases [26]
  percent of control binding remaining (lower = stronger binding): 10%
Broad panel of kinases [27]
  percent of control binding remaining (lower = stronger binding): 92%
Broad panel of kinases [28]
  percent of control binding remaining (lower = stronger binding): 87%
Broad panel of kinases [29]
  percent of control binding remaining (lower = stronger binding): 93%
Broad panel of kinases [30]
  percent of control binding remaining (lower = stronger binding): 78%
Broad panel of kinases [31]
  percent of control binding remaining (lower = stronger binding): 98%
Broad panel of kinases [32]
  percent of control binding remaining (lower = stronger binding): 95%
Broad panel of kinases [33]
  percent of control binding remaining (lower = stronger binding): 92%
Broad panel of kinases [34]
  percent of control binding remaining (lower = stronger binding): 91%
Broad panel of kinases [35]
  percent of control binding remaining (lower = stronger binding): 100%
Broad panel of kinases [36]; RSK3(Kin.Dom.1-N-terminal)
  percent of control binding remaining (lower = stronger binding): 89%
Broad panel of kinases [36]; RSK3(Kin.Dom.2-C-terminal)
  percent of control binding remaining (lower = stronger binding): 97%
